The values below come from US5792444A, “Labeled chemotactic peptides to image focal sites of infection or inflammation” (The General Hospital Corporation, priority 1993, dated 1998).

By EC50 is commonly meant the concentration that produces a half-maximal response. A word on the IC50: it is the concentration that gives 50% inhibition.

Read-outs that look alike come from different tables or passages of the source. *1 amine or outer side, *2 acyl side, *3 side chain or, on linkers, in order; H or OH if unused. Where a SMILES comes first, the peptide text is derived from it. Side-chain parts run from the residue outwards. [ ]: non-standard residue; d: D form. The star is where a group is joined. Isobutyloxycarbonyl = CC(C)COC(=O)*; Met(O) = CS(=O)CC[C@H](N)C(=O)O; Cha = N[C@@H](CC1CCCCC1)C(=O)O; HYNIC = NNc1ccc(C(=O)*)cn1; Nle = CCCC[C@H](N)C(=O)O; CO = O=C([*:1])[*:2]; NHPh = c1ccc(N*)cc1; NHiPr = CC(C)N*

Assay [1] deals with neutrophils / human umbilical vein endothelial cells. Put plainly: Adhesion agonist (neutrophil-endothelial cell adhesion assay). Type of assay: cell-based. The note with it: read-out: Adhesion Agonist EC50. The procedure: (§1) The unconjugated peptide iBoc-MLFK was evaluated in a neutrophil-endothelial cell adhesion assay. In this assay, neutrophils (5×10^5) labeled with 5-carboxyfluorescein diacetate were added into wells of a 48 well dish containing confluent human umbilical vein endothelial cells. The iBoc-MLFK peptide was added at a concentration of 10 μM 10 min prior to stimulation of neutrophils with 30 nM ForMLF. Percent adhesion was determined by washing off unattached neutrophils after an incubation period of 25 minutes. This peptide inhibited adhesion by 66% at this concentration. Subsequently, concentrations between 0.1-3.0 μM were examined. […] Inhibition of adhesion would reduce the infiltration of leukocytes, such as neutrophils, to a diseased site, thereby limiting the tissue damage associated with inflammation.
(§2) The procedure of Example 5 was repeated for additional CP's within the scope of the present invention. The results are shown in Table I. In the table, MPO is myeloperoxidase assay, a "-" sign means there was no effect at 30 μM, a "+" sign means there was a positive effect at 30 μM, and "N.T." means "Not

Assay [2] shares this test system. Kind of assay: cells. Type of assay: cell-based. The method, then:
as §1, §2

Assay [3] has as its target T1, neutrophils (Homo sapiens, UniProt P21462).
T1 sequence (P21462 1-350): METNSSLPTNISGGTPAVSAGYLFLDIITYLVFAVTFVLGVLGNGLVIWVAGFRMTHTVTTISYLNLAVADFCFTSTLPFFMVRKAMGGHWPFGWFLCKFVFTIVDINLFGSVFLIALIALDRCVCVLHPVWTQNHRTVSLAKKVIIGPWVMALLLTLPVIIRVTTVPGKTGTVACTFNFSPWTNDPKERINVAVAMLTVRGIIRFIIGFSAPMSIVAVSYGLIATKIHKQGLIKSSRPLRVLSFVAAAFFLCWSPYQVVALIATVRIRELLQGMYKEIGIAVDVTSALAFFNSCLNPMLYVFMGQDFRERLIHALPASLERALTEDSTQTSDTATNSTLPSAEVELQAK
Put plainly: Binding (Table I, Cell Biology Data). The note with it: for Binding EC50: class symbol. An excerpt:
Three non-DTPA derivatized peptides were included in the assay for comparison.

For assay [4], the target named is T1, neutrophils. Kind of assay: Free radicals agonist (neutrophil free radical chemiluminescence). Type of assay: cell-based. The note with it: class symbol.
In assay [5] the target is T1, neutrophils. Kind of assay: Free radicals antagonist (inhibition of ForMLF stimulated free radical chemiluminescence). Type of assay: cell-based.
Setting [6] is: read-out: Adhesion Antagonist IC50.

`CSCC[C@H](NC(N)=O)C(=O)N[C@@H](CC(C)C)C(=O)N[C@@H](Cc1ccccc1)C(=O)O` [Example 98, N-hydrourea-MLF]: the EC50 in assay [1] came to 0.62 µM.

For `CSCC[C@H](NC(=O)NC(C)C)C(=O)N[C@@H](CC(C)C)C(=O)N[C@@H](Cc1ccccc1)C(=O)N[C@@H](CCCCNC(=O)[C@H](CC(=O)O)NC(=O)c1ccc(NN)nc1)C(=O)O` [Example 29, i-proplyurea-MLF--Lys--Asp--SHNH] ({NHiPr-CO}-MLFK([Asp-HYNIC])-OH; C-terminus assumed), the EC50 in assay [1] was determined as 0.73 µM. Moreover, the half-inhibitory concentration (IC50) in assay [2] (setting [6]) is more than 30 µM.

Regarding `CSCC[C@H](NC(=O)Nc1ccccc1)C(=O)N[C@@H](CC(C)C)C(=O)N[C@@H](CC1CCCCC1)C(=O)O` [Example 34] ({NHPh-CO}-Met-Leu-[Cha]-OH), in assay [1] (class symbol), the EC50 is less than 30 µM.

As for `CC(C)COC(=O)N[C@@H](CC[S+](C)[O-])C(=O)N[C@@H](CC(C)C)C(=O)N[C@@H](Cc1ccccc1)C(=O)N[C@@H](CCCCN)C(N)=O` (stereo partly drawn) [Example 50, iBoc--M(O)--LFK] (Isobutyloxycarbonyl-[Met(O)]LFK-NH2), the “Binding EC50” value on neutrophils [3] was “? --”.

`NNc1ccc(C(=O)O)cn1` [Example 26, Hynic]: in assay [1] (Homo sapiens), the EC50 is more than 30 µM.

`CCCCC(=O)N[C@@H](CCSC)C(=O)N[C@@H](CC(C)C)C(=O)N[C@@H](Cc1ccccc1)C(=O)O` [Example 79, n-butyl-amidyl-MLF]: the EC50 in assay [1] (class symbol) was more than 30 µM. Also, the concentration for half-maximal inhibition (IC50) in assay [2] (setting [6]) came out at 9.6 µM.

As to `CSCC[C@H](NC(=O)c1ccc[nH]1)C(=O)N[C@@H](CC(C)C)C(=O)N[C@@H](Cc1ccccc1)C(=O)O` [Example 25, Pyrrole-M--L--F], in assay [2] (setting [6]), the half-inhibitory concentration (IC50) was determined as 6.2 µM.

For `CCCC[C@H](NC(=O)OCC(C)C)C(=O)N[C@@H](CC(C)C)C(=O)N[C@@H](Cc1ccccc1)C(=O)N[C@@H](CCCCN)C(N)=O` [Example 49, iBoc--Nle--LFK] (Isobutyloxycarbonyl-[Nle]LFK-NH2), on neutrophils [3], the “Binding EC50” value was “? --”.

“N(N-isopropylurea-FLFLF-Propanediamine-SPNH [Example 94]”: the half-maximal effective concentration (EC50) is 0.42 µM at neutrophils [3], more than 30 µM at neutrophils [4] and more than 30 µM in assay [1] (class symbol). At neutrophils [5], this compound registered an IC50 of 5 µM.

On to `CCCCNC(=O)N[C@@H](CCSC)C(=O)N[C@@H](CC(C)C)C(=O)N[C@@H](Cc1ccccc1)C(=O)O` [Example 65, N-butylurea-MLF], for which, in assay [1] (class symbol), the EC50 was less than 30 µM.

For the compound Leu--Ala--SHNH--Boc [Example 8], the half-maximal effective concentration (EC50) at neutrophils [3] is more than 100 µM; on neutrophils [4], more than 30 µM.

“Isopropylurea-FLFLF--Lys--Lys--SHNH [Example 18]”: the concentration for a half-maximal effect (EC50) at neutrophils [3] was 15.7 µM; at neutrophils [4], more than 30 µM. The same compound yielded an IC50 at neutrophils [5] of 29.5 µM.

With `CSCC[C@H](NC(=O)OCC(C)C)C(=O)N[C@@H](CC(C)C)C(=O)N[C@@H](Cc1ccccc1)C(=O)N[C@@H](CCCCN)C(N)=O` [Example 41, iBoc--MLFK] (Isobutyloxycarbonyl-MLFK-NH2), the half-maximal inhibitory concentration (IC50) in assay [2] is approximately 14 µM.

Turning to `CSCC[C@H](NC(=O)NC(C)C)C(=O)N[C@@H](CC(C)C)C(=O)N[C@@H](Cc1ccccc1)C(=O)NCCCNC(=O)c1ccc(NN)nc1` [Example 30, N-i-propylurea-MLF-propanediamine-SHNH], the concentration giving a half-maximal response (EC50) in assay [1] (class symbol) was more than 30 µM. Moreover, the half-inhibitory concentration (IC50) in assay [2] (setting [6]) was more than 30 µM.

Take `CSCC[C@H](NC=O)C(=O)N[C@@H](CC(C)C)C(=O)N[C@@H](Cc1ccccc1)C(=O)O` [Example 59, N-formyl-methionyl-leucyl-phenylalanine, reference compound]: in assay [1], the EC50 was 0.007 µM.

Take `CSCC[C@H](NC(=O)NC(C)C)C(=O)N[C@@H](CC(C)C)C(=O)N[C@@H](Cc1ccccc1)C(=O)NCCCNC(=O)[C@H](CC(=O)O)NC(=O)c1ccc(NN)nc1` [Example 31, i-propylurea-MLF-n-propyldiamine-Asp--SHNH]: the concentration for a half-maximal effect (EC50) in assay [1] amounted to 1.1 µM. Moreover, the concentration for half-maximal inhibition (IC50) in assay [2] (setting [6]) is more than 30 µM.

Turning to `CC(C)C[C@H](NC(=O)OCC1c2ccccc2-c2ccccc21)C(=O)O` [Example 11, FMOC-Leucine], the 50% inhibitory concentration (IC50) in assay [2] (Homo sapiens, read-out: Adhesion Antagonist IC50) is 20 µM.
